Data as given in US4260605A, “Novel alkylated pregnanes, processes for their preparation and pharmaceutical compositions containing same” (Akzo N.V., priority 1979, dated 1981).

Test system: dorsal shaved skin
Experiment: Rat seven-day intracutaneous skin thinning test (skin thinning and systemic effects)
Type: in vivo, rat (male, strain CFHB)
Settings: for Final body weight / Combined adrenal weight / Thymus weight / Spleen weight / Treated skin weight: mean; for Final body weight: 8 mg intracutaneous (16×0.5 mg), autopsy seven days later, initial body weight 200±3 g, control 249; for Combined adrenal weight / Thymus weight / Spleen weight / Treated skin weight: 8 mg intracutaneous, seven days; for Combined adrenal weight: control 41.5; for Thymus weight: control 612; for Spleen weight: control 788; for Treated skin weight: 4×4 cm area of treated skin, control 1.630; for systemic effects: conclusion in words
Description: Male rats strain CFHB, initial body weight 200±3 g, were used in the experiment and divided in seven groups each containing 10 animals, six groups being used for testing the compounds a-f and the seventh group serving as controls.
Each anaesthetised animal in each group received 8 mg of the respective compound injected as 16×0.5 mg suspended in 0.05 ml of suspension fluid into a 4×4 cm area of dorsal shaved skin. […]
At autopsy seven days later the spleen, adrenals, thymus and body weight were recorded in addition to the 4×4 cm area of treated skin. Table B summarises the means of the results.

Combined adrenal weight [mg] | Thymus weight [mg] | Spleen weight [mg] | Treated skin weight [g] | systemic effects | SMILES | Final body weight [g]
21.5 | 96 | 445 | 1.445 | have systemic effects | CCCCC(=O)O[C@]1(C(=O)CO)[C@@H](C)C[C@H]2[C@@H]3CCC4=CC(=O)C=C[C@]4(C)[C@@]3(F)[C@@H](O)C[C@@]21C [f, betamethasone 17valerate] | 229
34.7 | 96 | 503 | 1.410 | have systemic effects | CCCC(=O)O[C@]1(C(=O)CO)CC[C@H]2[C@@H]3CCC4=CC(=O)CC[C@]4(C)[C@H]3[C@@H](O)C[C@@]21C [g, hydrocortisone 17n-butyrate] | 227
17.4 | 65 | 150 | 1.107 | have systemic effects | CC1(C)O[C@@H]2C[C@H]3[C@@H]4CCC5=CC(=O)C=C[C@]5(C)[C@@]4(F)[C@@H](O)C[C@]3(C)[C@]2(C(=O)CO)O1 [h, triamcinolone acetonide] | 142

SMILES | Combined adrenal weight [mg] | Thymus weight [mg] | Spleen weight [mg] | Treated skin weight [g] | systemic effects | Final body weight [g]
CCCC(=O)O[C@]1(C(=O)CC)CC[C@H]2[C@@H]3CCC4=CC(=O)CC[C@]4(C)[C@H]3[C@@H](O)C[C@@]21C [b, 11β,17dihydroxy-21-methyl-Δ^4pregnene-3,20-dione 17n-butyrate] | 36.3 | 533 | 727 | 1.660 | – | 249
